According to patent publication US8153818B2, “Triazolyl phenyl benzenesulfonamides” (ChemoCentryx, Inc., priority 2006, dated 2012):

Target: T1, CCR9 (Homo sapiens, UniProt P51686)
T1 construct: chemokine expressing cells (such as THP-1 cells for CCR2 assay or MOLT-4 cells for CCR9 assay); host or cells: MOLT-4
T1 sequence (P51686 1-369): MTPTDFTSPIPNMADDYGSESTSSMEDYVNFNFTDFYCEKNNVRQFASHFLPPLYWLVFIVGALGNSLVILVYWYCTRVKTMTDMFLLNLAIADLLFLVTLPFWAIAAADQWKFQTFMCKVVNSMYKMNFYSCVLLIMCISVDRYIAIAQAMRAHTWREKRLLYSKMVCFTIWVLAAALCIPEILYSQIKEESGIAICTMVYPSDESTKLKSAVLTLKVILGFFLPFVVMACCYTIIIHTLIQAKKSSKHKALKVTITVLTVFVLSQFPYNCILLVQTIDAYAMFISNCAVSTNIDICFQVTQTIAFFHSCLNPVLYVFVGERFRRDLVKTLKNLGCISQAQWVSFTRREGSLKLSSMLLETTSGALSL
Assay: CCR9 activity in one of the chemotaxis, binding or calcium mobilization assays
Type: cell-based
Conditions: assay not specified per compound
Method in brief: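 Chemotaxis: THP-1 cells (CCR2, 0.1 nM MCP-1, 90 min) or MOLT-4 cells (CCR9, 50 nM TECK, 150 min) preincubated with compound 15 min RT, migration at 37 °C through 5-μm membrane, CyQUANT read; IC50 by nonlinear regression. Calcium flux: Fluo-4-loaded cells, 0.1 nM MCP-1 or 25 nM TECK. Binding: THP-1, ~50 pM [125I]MCP-1, 3 h, 4 °C.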

Row | IC50 [nM] | Compound
1 | < 1000 | CNCc1nnc(-c2cc(Cl)ccc2NS(=O)(=O)c2ccc(C(C)(C)C)cc2)n1C [Compound 132, 4-tert-butyl-N-(4-chloro-2-(4-methyl-5-((methylamino)methyl)-4H-1,2,4-triazol-3-yl)phenyl)benzenesulfonamide]
2 | < 1000 | COCCn1cnnc1-c1cc(Cl)c(F)cc1NS(=O)(=O)c1ccc(C(C)(C)C)cc1 [Compound 136, 4-tert-butyl-N-(4-chloro-5-fluoro-2-(4-(2-methoxyethyl)-4H-1,2,4-triazol-3-yl)phenyl)benzenesulfonamide]
3 | < 1000 | Cn1c(CCO)nnc1-c1cc(Cl)c(F)cc1NS(=O)(=O)c1ccc(C(C)(C)C)cc1 [Compound 137, 4-tert-butyl-N-(4-chloro-5-fluoro-2-(5-(2-hydroxyethyl)-4-methyl-4H-1,2,4-triazol-3-yl)phenyl)benzenesulfonamide]
4 | < 1000 | CO[C@@H](C)c1nnc(-c2cc(Cl)c(F)cc2NS(=O)(=O)c2ccc(C(C)(C)C)cc2)n1C [Compound 139]
5 | < 1000 | Cn1c(-c2cc(Cl)c(F)cc2NS(=O)(=O)c2ccc(C(C)(C)C)cc2)nnc1[C@H]1CCCN1 [Compound 140]
6 | < 1000 | Cn1c(CN2CCOCC2)nnc1-c1cc(Cl)ccc1NS(=O)(=O)c1ccc(C(C)(C)C)cc1 [Compound 144]
7 | < 1000 | Cn1c(-c2cc(Cl)c(F)cc2NS(=O)(=O)c2ccc(C(C)(C)C)cc2)nnc1C1CCCNC1 (stereo not drawn) [Compound 145]
8 | < 1000 | CC(C)c1nnc(-c2cc(Cl)c(F)cc2NS(=O)(=O)c2ccc(C(C)(C)C)cc2)n1[C@H]1CCNC1 [Compound 146]
9 | < 1000 | Cn1c(CN2CCNCC2)nnc1-c1cc(Cl)c(F)cc1NS(=O)(=O)c1ccc(C(C)(C)C)cc1 [Compound 147]
10 | < 1000 | Cn1c(CN[C@H]2CCOC2)nnc1-c1cc(Cl)c(F)cc1NS(=O)(=O)c1ccc(C(C)(C)C)cc1 [Compound 148]

Further lines, the compound ahead of its results:

Row | Compound | IC50 [nM]
11 | CC(C)(C)c1ccc(S(=O)(=O)Nc2ccc(Cl)cc2-c2nncn2C2CNC2)cc1 [Compound 131] | < 1000
12 | CCc1nnc(-c2cc(C(=O)OC)ccc2NS(=O)(=O)c2ccc(C(C)(C)C)cc2)n1C [Compound 133, methyl 4-(4-tert-butylphenylsulfonamido)-3-(5-ethyl-4-methyl-4H-1,2,4-triazol-3-yl)benzoate] | < 1000
13 | CC(C)Oc1ccc(S(=O)(=O)Nc2ccc(Cl)cc2-c2nncn2[C@H]2CCNC2)cc1 [Compound 134, (S)—N-(4-chloro-2-(4-(pyrrolidin-3-yl)-4H-1,2,4-triazol-3-yl)phenyl)-4-isopropoxybenzenesulfonamide] | < 1000
14 | Cc1nnc(-c2cc(Cl)ccc2NS(=O)(=O)c2ccc(N3CCOCC3)c(F)c2)n1C [Compound 135, N-(4-chloro-2-(4,5-dimethyl-4H-1,2,4-triazol-3-yl)phenyl)-3-fluoro-4-morpholinobenzenesulfonamide] | < 1000
15 | CC(C)NCc1nnc(-c2cc(Cl)ccc2NS(=O)(=O)c2ccc(C(C)(C)C)cc2)n1C [Compound 138, 4-tert-butyl-N-(4-chloro-2-(5-((isopropylamino)methyl)-4-methyl-4H-1,2,4-triazol-3-yl)phenyl)benzenesulfonamide] | < 1000
16 | CC(C)N1CC[C@H](n2cnnc2-c2cc(Cl)ccc2NS(=O)(=O)c2ccc(C(C)(C)C)cc2)C1 [Compound 141] | < 1000
17 | CC1(c2ccc(S(=O)(=O)Nc3ccc(Cl)cc3-c3nncn3[C@H]3CCNC3)cc2)CCOCC1 [Compound 142, (S)—N-(4-chloro-2-(4-(pyrrolidin-3-yl)-4H-1,2,4-triazol-3-yl)phenyl)-4-(4-methyltetrahydro-2H-pyran-4-yl)benzenesulfonamide] | < 1000
18 | CC(C)(C)c1ccc(S(=O)(=O)Nc2ccc(Cl)cc2-c2nncn2[C@H]2CCN(C(N)=O)C2)cc1 [Compound 143] | < 1000
